Data from patent US20120214875A1, “PHENOX[…]” (priority 2011, published 2012).
Where “and” joins values, the source holds several entries; their conditions need not be identical. Identical values can stand only once.

How the values were obtained:
[1] = Autosampler re-injection reproducibility of extracted QC samples; type: physicochemical; conditions: for Amount Found: single replicates; for % Difference: 7° C. ± 4° C.
Method: (§1) Phenoxybenzamine and the internal standard phenoxybenzamine-d5 were extracted from 0.2 mL of human plasma, using EDTA (potassium K2 salt) as the anticoagulant and containing 1.3% of H3PO4 as stabilizer, by solid phase extraction into 0.8 mL of 0.1% TFA in 80% methanol, followed by dilution with 0.4 mL of 0.1% TFA. An aliquot of this extract was injected into a high performance liquid chromatography system and detected using an API 3000 tandem mass spectrometer with HSID interface and quantitated using peak area ratio method. Method sensitivity and selectivity were achieved by detecting distinct precursor to product ion mass transitions for phenoxybenzamine (304.1→120.0) and the internal standard phenoxybenzamine-d5 (309.1→120.0) at defined retention times under reverse chromatographic conditions.
(§2) Blood plasma was separated from whole blood. The plasma samples should be protected from light and may be stored at −70° C. for use. The plasma samples were thawed in cold tap water and analyzed along with a set of standard samples. All samples were vortexed for about 20 seconds, centrifuged at 3000 rpm for 5 minutes at 4° C.±4° C., and placed in an ice-water bath. 200 uL of plasma was added to polypropylene tubes and kept in ice-water bath. 100 uL of internal standard working solution (40 ng/mL of phenoxybenzamine-d5) was added into all the tubes except those labeled with “BLANK.” 100 uL of 0.1 N HCl in 20% methanol was added to those labeled with BLANK and the tubes were vortexed for about 20 seconds. 400 uL of 1.7% phosphoric acid was added into all tubes. The tubes were vortexed for about 40 seconds and left in an ice-water bath. The Oasis™ HLB 1 cc (30 mg) cartridges (Waters) were washed first with 700 uL methanol and then with 700 uL water. The samples prepared above were then transferred into the cartridges which were then centrifuged at 1000 rpm for 2 minutes at 4° C.±4° C. Cartridges were then first washed with 700 uL water and then washed with 700 uL of 0.1% TFA in 40% methanol. Cartridges were then eluted twice with 400 μL of 0.1% TFA in 80% methanol, and all of the eluates were collected and diluted with 400 μL of 0.1% TFA. The extracted samples were then ready for analysis.
The mean concentration of the aged re-injected samples was compared with the mean concentration of the initial zero hour samples prepared at the same concentration as the QC samples.

[2] = Stability of phenoxybenzamine in whole blood; type: in vitro ADME, human; conditions: for WB Sample Amount Found, Mean: mean of six; for WB Sample Amount Found: single replicates
Method: Stability of phenoxybenzamine in human whole blood was determined by spiking phenoxybenzamine into fresh human whole blood. This was followed by the preparation of the whole blood samples into two sets: one set was immediately processed into plasma and the other set was stored at 4° C.±4° C. for up to two hours and then processed into plasma. Samples were extracted in replicates of six with control blank and analyzed.

[3] = Stability of phenoxybenzamine in acidified plasma; type: in vitro ADME
Method: (§3) The stability of phenoxybenzamine in acidified plasma samples containing 1% FA, 1% H3PO4, 2% H3PO4 or 0.1N HCl was tested.

[4] = Processed sample integrity; type: physicochemical; conditions: for Amount Found: single replicates; for % Difference: ~112 hours vs 0.0 hours, 4° C. ± 4° C.
Method: as §1, §2
The mean concentration at each time-point was compared with the mean concentration of the zero hour samples.

[5] = Stability of phenoxybenzamine in neat solution; type: physicochemical
Method: The stability of phenoxybenzamine in neat solutions was examined. The measured amount of phenoxybenzamine in neat solution dropped ˜90% in 24 hours at ambient temperature but ˜20% at 4° C.

[6] = Stability of phenoxybenzamine in various solvents; type: physicochemical
Method: Various solvents were examined for their abilities to stabilize phenoxybenzamine. The solvents examined were alcohol, acetonitrile (ACN), methanol (MeOH), acidified solvents (e.g., acidified MeOH and acidified ACN). Phenoxybenzamine in these solvents was not stable for 24 hr at 4° C. The stability of phenoxybenzamine was examined in acidified ACN with 0.5%, 1% and 2% formic acid (“FA”). Phenoxybenzamine was stable for ˜3 hr at RT and 4° C. The measured amount of phenoxybenzamine for neat standard in 0.5% FA in ACN was higher than those using 1% FA in ACN, and 2% FA in ACN.
The stability of phenoxybenzamine was examined in acidified MeOH (80% MeOH containing 0.1% TFA). Phenoxybenzamine was stable for at least 48 hours at 4° C., −25° C. and −70° C.
as §3

[7] = QC HIGH 19.232 ng/mL added, 0.0 hours
[8] = QC HIGH 19.232 ng/mL added, ~75 hours at 7° C. ± 4° C.
[9] = QC HIGH 19.232 ng/mL added, ~110 hours at 7° C. ± 4° C.
[10] = QC LOW 0.601 ng/mL added, 0.0 hours
[11] = QC LOW 0.601 ng/mL added, ~110 hours at 7° C. ± 4° C.
[12] = human whole blood, ~2 hours at 4° C.±4° C.
[13] = QC HIGH 19.232 ng/mL added, ~112 hours at 4° C. ± 4° C.
[14] = QC LOW 0.601 ng/mL added, ~112 hours at 4° C. ± 4° C.

**Q.** For `CC(COc1ccccc1)N(CCCl)Cc1ccccc1` (racemic) [phenoxybenzamine, (RS)—N-benzyl-N-(2-chloroethyl)-1-phenoxy-propan-2-amine], which “Amount Found, Mean” value [1, 7] is on record?
**A.** 18.178 ng/mL

**Q.** What about the “Amount Found” value [1, 7] of the same compound?
**A.** 18.305 ng/mL and 18.069 ng/mL and 18.161 ng/mL

**Q.** What about the “Amount Found, Mean” value [1, 8] of the same compound?
**A.** 18.411 ng/mL

**Q.** What about the “Amount Found” value [1, 8] of the same compound?
**A.** 18.066 ng/mL and 18.686 ng/mL and 18.482 ng/mL

**Q.** What about the “Amount Found, Mean” value [1, 9] of the same compound?
**A.** 18.423 ng/mL

**Q.** And the “Amount Found” value [1, 9]?
**A.** 18.179 ng/mL and 18.435 ng/mL and 18.656 ng/mL

**Q.** What about the “% Difference” value ([1]; QC HIGH, ~75 hours vs 0.0 hours) of the same compound?
**A.** 1.3%

**Q.** And the “% Difference” value ([1]; QC HIGH, ~110 hours vs 0.0 hours)?
**A.** 1.3%

**Q.** What about the “Amount Found, Mean” value [1, 10] of the same compound?
**A.** 0.601 ng/mL

**Q.** What about the “Amount Found” value [1, 10] of the same compound?
**A.** 0.590 ng/mL and 0.603 ng/mL and 0.610 ng/mL

**Q.** And the “Amount Found, Mean” value ([1]; QC LOW 0.601 ng/mL added, ~75 hours at 7° C. ± 4° C.)?
**A.** 0.615 ng/mL

**Q.** And the “Amount Found” value ([1]; QC LOW 0.601 ng/mL added, ~75 hours in autosampler at 7° C. ± 4° C.)?
**A.** 0.610 ng/mL and 0.646 ng/mL and 0.590 ng/mL

**Q.** What about the “Amount Found, Mean” value [1, 11] of the same compound?
**A.** 0.603 ng/mL

**Q.** And the “Amount Found” value [1, 11]?
**A.** 0.602 ng/mL and 0.612 ng/mL and 0.595 ng/mL

**Q.** And the “% Difference” value ([1]; QC LOW, ~75 hours vs 0.0 hours)?
**A.** 2.4%

**Q.** And the “% Difference” value ([1]; QC LOW, ~110 hours vs 0.0 hours)?
**A.** 0.3%

**Q.** What about the “time for which extracted samples can be re-injected” value ([1]; extracted samples stored in autosampler at 7° C.±4° C.) of the same compound?
**A.** up to 110 hours

**Q.** And the “WB Sample Amount Found, Mean” value ([2]; human whole blood, time 0.0 hours)?
**A.** 3.357 ng/mL

**Q.** And the “WB Sample Amount Found” value ([2]; human whole blood, time 0.0 hours, processed immediately into plasma)?
**A.** 3.379 ng/mL and 3.325 ng/mL and 3.381 ng/mL and 3.387 ng/mL and 3.305 ng/mL and 3.365 ng/mL

**Q.** What about the “WB Sample Amount Found, Mean” value [2, 12] of the same compound?
**A.** 3.297 ng/mL

**Q.** And the “WB Sample Amount Found” value [2, 12]?
**A.** 3.315 ng/mL and 3.330 ng/mL and 3.365 ng/mL and 3.328 ng/mL and 3.283 ng/mL and 3.160 ng/mL

**Q.** What about the “% Difference” value ([2]; human whole blood, ~2 hours vs 0.0 hours, 4° C.±4° C.) of the same compound?
**A.** −1.8%

**Q.** And the “time stable in whole blood” value ([2]; stored at 4° C.±4° C.)?
**A.** up to 2 hours

**Q.** And the “stability in acidified plasma” value ([3]; plasma containing 0.1N HCl)?
**A.** stable

**Q.** What about the “stability in acidified plasma” value ([3]; plasma containing 1% FA) of the same compound?
**A.** stable except for 1% FA

**Q.** What about the “stability in acidified plasma” value ([3]; plasma containing 1% H3PO4) of the same compound?
**A.** stable

**Q.** What about the “stability in acidified plasma” value ([3]; plasma containing 2% H3PO4) of the same compound?
**A.** stable

**Q.** What about the “time for which integrity of processed samples is not affected” value ([4]; LOW and HIGH concentrations, 4° C.±4° C.) of the same compound?
**A.** up to 112 hours

**Q.** And the “Amount Found, Mean” value [4, 7]?
**A.** 18.178 ng/mL

**Q.** What about the “Amount Found” value [4, 7] of the same compound?
**A.** 18.305 ng/mL and 18.069 ng/mL and 18.161 ng/mL

**Q.** And the “Amount Found, Mean” value [4, 13]?
**A.** 18.214 ng/mL

**Q.** And the “Amount Found” value [4, 13]?
**A.** 18.209 ng/mL and 18.214 ng/mL and 18.220 ng/mL

**Q.** What about the “% Difference” value ([4]; QC HIGH) of the same compound?
**A.** 0.2%

**Q.** What about the “Amount Found, Mean” value [4, 10] of the same compound?
**A.** 0.601 ng/mL

**Q.** And the “Amount Found” value [4, 10]?
**A.** 0.590 ng/mL and 0.603 ng/mL and 0.610 ng/mL

**Q.** What about the “Amount Found, Mean” value [4, 14] of the same compound?
**A.** 0.583 ng/mL

**Q.** And the “Amount Found” value [4, 14]?
**A.** 0.574 ng/mL and 0.590 ng/mL and 0.586 ng/mL

**Q.** What about the “% Difference” value ([4]; QC LOW) of the same compound?
**A.** −2.9%

**Q.** And the “drop of measured amount in neat solution” value ([5]; 24 hours at 4° C.)?
**A.** ~20%

**Q.** And the “drop of measured amount in neat solution” value ([5]; 24 hours at ambient temperature)?
**A.** ~90%

**Q.** And the “measured amount for neat standard in 0.5% FA in ACN compared with 1% FA and 2% FA in ACN” value ([6]; 0.5% FA in ACN vs 1% and 2% FA in ACN)?
**A.** higher

**Q.** What about the “drop, autosampler stability” value ([6]; 0.5% FA in ACN, ~24 hr) of the same compound?
**A.** ~70%

**Q.** And the “autosampler re-injection stability, time stable” value ([6]; 80% MeOH containing 0.1% TFA)?
**A.** at least 24 hours

**Q.** And the “time stable in acidified MeOH” value ([6]; 80% MeOH containing 0.1% TFA, 4° C., −25° C. and −70° C.)?
**A.** at least 48 hours

**Q.** What about the “time stable in acidified ACN” value ([6]; ACN with 0.5%, 1% and 2% formic acid, RT and 4° C.) of the same compound?
**A.** ~3 h

**Q.** What about the stability in solvents ([6]; alcohol, acetonitrile, methanol, acidified MeOH and acidified ACN, 24 hr at 4° C.) of the same compound?
**A.** not stable
